Test results from patent US9339476B2, “Implantable meshes for controlling the movement of fluids” (Arch Biosurgery, Inc., priority 2013, dated 2016).

Experiments:
[1] = tested on: 4 mm diameter biopsy punch lesion of the liver's right lobe with brisk bleeding; assay: Rat liver biopsy punch model, hemostasis; format: in vivo, Sprague Dawley rats
Description: (§1) A self-assembling peptide having the sequence RADARADARADARADA (RADA4; SEQ. ID. NO: 1) acetate salt was reconstituted in sterile water to 3%. The material was stored at […] in a cooler with cold pack over it until brought to the study facility. Lyo cakes of 3 vials were crushed using a spatula and then combined in 1 vial. The combined content was reconstituted with 1 mL volume of sterile water for injection. The lyophilized formulation went in solution easily in 1-2 minutes and was vortexed for 30 seconds before use.
(§2) Four female Sprague Dawley rats each weighing 300-320 g were anesthetized with a mixture of xylaxine/ketamine. When a suitable plane of anesthesia was reached, a ventral midline incision was made in the abdomen allowing for visualization and manipulation of the liver's right lobe. Further manipulation to expose the portal vein was performed to allow for withdrawal of 1 mL of blood for measurement of blood activated clotting time (ACT).
A wooden spatula was then placed behind the right lobe of the liver and a 4 mm diameter biopsy punch was used to remove a full thickness 4 mm diameter section of the liver resulting in a lesion with brisk bleeding.
Immediately, 0.5 mL of a 3% aqueous solution of pre-formulated RADA4 peptide reconstituted in sterile water was applied to the biopsy site using a 22½ gauge needle.

[2] = Reconstitution of lyophilized formulation in sterile water for injection; format: physicochemical; details: lyo cakes of 3 vials combined, reconstituted with 1 mL sterile water for injection
Description: as §1

[3] = tested on: second 4 mm diameter biopsy punch lesion in the right lobe of the liver; assay: Rat liver biopsy punch model, hemostasis in the presence of anticoagulant (heparin); format: in vivo, Sprague Dawley rats
Description: (§3) To determine whether hemostasis could be achieved in the presence of anticoagulant, heparin was then administered to the animal at a dose of 500 IU per kg body weight injected directly into the portal vein. Two minutes after heparin injection, a second 4 mm diameter biopsy punch lesion was made adjacent to the first lesion in the right lobe of the liver and 0.5 ml of a 3% aqueous RADA4 peptide solution was again added to the lesion.

[4] = tested on: blood activated clotting time (ACT); assay: Blood activated clotting time (ACT); format: in vivo, Sprague Dawley rats; details: 8 minutes following heparin injection (500 IU/kg, portal vein); baseline approximately 110 seconds
Description: as §2, §3

Row | Substance | time until bleeding stopped completely ([1]; 0.5 mL of 3% aqueous solution applied to 4 mm liver biopsy site, no anticoagulant) [s] | producing hemostasis (overall outcome) ([1]; 3% aqueous solution, absence of clinically significant anticoagulation) | stability of hemostasis at later assessment ([1]; 10 minutes following application, no anticoagulant) | time for lyophilized formulation to go in solution [2] [min] | time until bleeding stopped ([3]; 0.5 ml of 3% aqueous solution, lesion made two minutes after heparin 500 IU per kg into the portal vein) [s] | producing hemostasis (overall outcome) ([3]; 3% aqueous solution, presence of clinically significant anticoagulation) | stability of hemostasis at later assessment ([3]; at 10 minutes, after heparin 500 IU per kg) | ACT measurement [4]
1 | RADARADARADARADA [RADA4] | ≤ 30 | successful | stable without further bleeding | 1 to 2 | ≤ 30 | successful | stable | 
2 | heparin |  |  |  |  |  |  |  | greater than 1,300 seconds
